Our source for the IC50 values is PMC6352943, “Novel pyrazolo[3,4-d]pyrimidines: design, synthesis, anticancer activity, dual EGFR/ErbB2 receptor tyrosine kinases inhibitory activity, effects on cell cycle profile and caspase-3-mediated apoptosis” (Journal of Enzyme Inhibition and Medicinal Chemistry, 2019).

This assay has as its system NCI-H226. Kind of assay: MTT cell viability assay. Format: cell-based. The conditions noted are these: Homo sapiens, NCI-H226 lung cancer, 48 h, mean ± SD of three experiments, read-out: IC50 (concentration required for 50% inhibition of cell viability). Here is the method: Cell Line cells were obtained from American Type Culture Collection, cells were cultured using Dulbecco's Modified Eagle's medium (DMEM) (Invitrogen/Life Technologies) supplemented with 10% foetal bovine serum (FBS) (Hyclone), 10 μg/mL of insulin (Sigma), and 1% penicillin-streptomycin. All of the other chemicals and reagents were from Sigma, or Invitrogen. Plate cells (cells density 1.2 – 1.8 × 10,000 cells/well) in a volume of 100 µL complete growth medium and 100 μL of the tested compound per well in a 96-well plate for 24 h before the MTT assay.
Remove culture medium to a centrifuge tube. […] Add 2.0 to 3.0 ml of Trypsin EDTA solution to flask and observe cells under an inverted microscope until cell layer is dispersed. Add 6 to 8 ml of complete growth medium and aspirate cells by gently pipetting. […]
The 3–(4, 5-dimethylthiazol-2-yl)-2,5-diphenyltetrazolium bromide (MTT) method[30] of monitoring in vitro cytotoxicity is well suited for use with multiwell plates. […] The number of living cells in the presence or absence (control) of the various test compounds is directly proportional to the intensity of the blue colour, measured by spectrophotometry using (ROBONIK P2000 Spectrophotometer) at a wavelength of 570 nm. Measure the background absorbance of multiwell plates at 690 nm and subtract from the 570 nm measurement. […]

`Cc1nn(-c2ccc(F)cc2)c2ncnc(Nc3ccc(F)c(Cl)c3)c12` [Compound 7d, N-(3-Chloro-4-fluorophenyl)-1–(4-fluorophenyl)-3-methyl-1H-pyrazolo[3,4-d] pyrimidin-4-amine]: the IC50 came out at 17.4 ± 2.13 µM.
